Values belong to the compound of their own block, whether it stands above or below them. The source made the active and inactive calls. No cut-off for these calls is given here.
How the values were obtained:
[1] = system: Mast/stem cell growth factor receptor Kit (Homo sapiens), P10721 [UNDEFINED MUTATION]; details: GISTT1, 0.1 uM
Description: Inhibition of c-KIT 560 to 578 deletion mutant in human GISTT1 cells assessed as reduction in pS6 phosphorylation at S236 residue at 0.1 uM measured after 2 hrs by Western blot analysis

[2] = target: RAC-alpha serine/threonine-protein kinase (Homo sapiens) (UniProt P31749); details: GISTT1, 0.1 uM
Description: Inhibition of AKT autophosphorylation at T308 residue in human GISTT1 cells harboring c-KIT 560 to 578 deletion/T670I mutant at 0.1 uM measured after 2 hrs by Western blot analysis

[3] = system: Mast/stem cell growth factor receptor Kit (Homo sapiens), P10721 [UNDEFINED MUTATION]; details: GISTT1, 0.1 uM; remark: listed apart in the source
Description: Inhibition of c-KIT 560 to 578 deletion/T670I mutant in human GISTT1 cells assessed as reduction in AKT phosphorylation at S473 residue at 0.1 uM measured after 2 hrs by Western blot analysis

[4] = system: Mast/stem cell growth factor receptor Kit (Homo sapiens), P10721 [UNDEFINED MUTATION]; details: GISTT1, 0.1 uM; remark: listed apart in the source
Description: Inhibition of c-KIT 560 to 578 deletion mutant in human GISTT1 cells assessed as reduction in AKT phosphorylation at S473 residue at 0.1 uM measured after 2 hrs by Western blot analysis

[5] = system: Mast/stem cell growth factor receptor Kit (Homo sapiens), P10721 [UNDEFINED MUTATION]; details: GISTT1, 0.1 uM; remark: listed apart in the source
Description: Inhibition of c-KIT 560 to 578 deletion/T670I mutant in human GISTT1 cells assessed as reduction in pS6 phosphorylation at S236 residue at 0.1 uM measured after 2 hrs by Western blot analysis

[6] = system: Mast/stem cell growth factor receptor Kit (Homo sapiens), P10721 [UNDEFINED MUTATION]; details: 0.1 uM
Description: Inhibition of c-KIT 560 to 578 deletion/T670I mutant in human GIST5R assessed as reduction in AKT phosphorylation at S473 residue at 0.1 uM measured after 2 hrs by Western blot analysis

[7] = system: Mast/stem cell growth factor receptor Kit (Homo sapiens), P10721 [UNDEFINED MUTATION]; details: GISTT1, 0.1 uM; remark: listed apart in the source
Description: Inhibition of c-KIT 560 to 578 deletion/T670I mutant in human GISTT1 cells assessed as reduction in AKT phosphorylation at T308 residue at 0.1 uM measured after 2 hrs by Western blot analysis

[8] = target: RAC-alpha serine/threonine-protein kinase (Homo sapiens) (UniProt P31749); details: 0.1 uM
Description: Inhibition of AKT autophosphorylation at T308 residue in human GIST5R cells harboring c-KIT 560 to 578 deletion/T670I mutant at 0.1 uM measured after 2 hrs by Western blot analysis

[9] = Antitumor activity against mouse BAF3(transformed) cells harboring c-KIT Y823D mutant implanted in BALB/c nu mouse assessed as tumor weight at 80 mg/kg/day, po administered via gavage for 9 days (reference value: 0.96 g); format: functional
[10] = Inhibition of recombinant human GST-tagged FLT4 cytoplasmic domain Q890H/V1128L/H1146R mutant (800 to 1297 residues) expressed in baculovirus expression system by Z-lyte assay
GISTT1 [11] = format: functional
[12] = Half life in Beagle dog at 5 mg/kg, po by LC-MS/MS analysis; format: ADME, organism-based, Canis lupus familiaris; details: in vivo
GISTT1 [13] = format: functional, cell-based; details: Homo sapiens
Mus musculus [14] = format: functional, organism-based; details: BALB/c, 80 mg/kg
Homo sapiens [15] = format: functional, cell-based
[16] = Tmax in Beagle dog at 5 mg/kg, po by LC-MS/MS analysis; format: ADME, organism-based, Canis lupus familiaris; details: in vivo
[17] = Antitumor activity against mouse BAF3(transformed) cells harboring c-KIT Y823D mutant implanted in BALB/c nu mouse assessed as tumor growth inhibition at 40 mg/kg/day, po administered via gavage for 9 days relative to control; format: functional; details: 216 h, read-out: TGI
Homo sapiens [18] = organism: Homo sapiens; format: functional, cell-based; remark: listed apart in the source
[19] = Antitumor activity against mouse BAF3(transformed) cells harboring c-KIT D820G mutant implanted in BALB/c nu mouse assessed as tumor growth inhibition at 80 mg/kg/day, po administered via gavage for 9 days relative to control; format: functional; details: 216 h, read-out: TGI
[20] = Antitumor activity against mouse BAF3(transformed) cells harboring c-KIT T670I mutant implanted in BALB/c nu mouse assessed as tumor growth inhibition at 100 mg/kg/day, po administered via gavage for 11 days relative to control; format: functional; details: 264 h, read-out: TGI
[21] = target: T1, Mast/stem cell growth factor receptor Kit (Homo sapiens, UniProt P10721, 560-578DEL/T670I); format: cell-based
T1 sequence (P10721 whole entry, looked up, stated change not applied): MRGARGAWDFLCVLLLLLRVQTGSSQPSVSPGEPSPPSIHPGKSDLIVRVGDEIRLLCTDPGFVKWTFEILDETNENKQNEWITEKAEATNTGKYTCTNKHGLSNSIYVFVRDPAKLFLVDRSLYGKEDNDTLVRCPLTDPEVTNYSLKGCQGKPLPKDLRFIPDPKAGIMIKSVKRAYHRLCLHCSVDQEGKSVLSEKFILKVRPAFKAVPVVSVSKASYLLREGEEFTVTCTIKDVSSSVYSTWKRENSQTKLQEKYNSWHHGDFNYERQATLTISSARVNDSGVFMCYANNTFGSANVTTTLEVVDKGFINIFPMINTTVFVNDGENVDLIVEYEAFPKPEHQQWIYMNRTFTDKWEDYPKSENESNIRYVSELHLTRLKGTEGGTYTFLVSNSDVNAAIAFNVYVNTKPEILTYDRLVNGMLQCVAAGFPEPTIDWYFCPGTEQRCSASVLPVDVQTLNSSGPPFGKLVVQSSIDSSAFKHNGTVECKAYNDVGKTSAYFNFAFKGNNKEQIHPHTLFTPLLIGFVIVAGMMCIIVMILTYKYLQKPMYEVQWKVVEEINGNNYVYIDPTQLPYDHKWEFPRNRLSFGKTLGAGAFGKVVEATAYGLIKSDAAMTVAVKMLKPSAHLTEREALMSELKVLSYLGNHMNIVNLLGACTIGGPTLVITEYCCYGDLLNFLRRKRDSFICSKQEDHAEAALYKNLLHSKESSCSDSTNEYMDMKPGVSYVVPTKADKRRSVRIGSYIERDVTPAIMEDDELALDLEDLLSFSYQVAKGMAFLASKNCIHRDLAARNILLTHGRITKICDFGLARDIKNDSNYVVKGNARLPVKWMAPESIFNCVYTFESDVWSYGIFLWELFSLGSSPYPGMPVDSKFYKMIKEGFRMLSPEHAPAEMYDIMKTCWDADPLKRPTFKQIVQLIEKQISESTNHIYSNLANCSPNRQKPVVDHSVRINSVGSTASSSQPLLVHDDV

[22] = target: Platelet-derived growth factor receptor beta (Mus musculus) (UniProt P05622); assay: Inhibition of PDGFRB in mouse BAF3(transformed) cells assessed as growth inhibition after 72 hrs by CCK8 assay
Chain of Platelet-derived growth factor receptor beta (Mus musculus) (P05622 whole entry): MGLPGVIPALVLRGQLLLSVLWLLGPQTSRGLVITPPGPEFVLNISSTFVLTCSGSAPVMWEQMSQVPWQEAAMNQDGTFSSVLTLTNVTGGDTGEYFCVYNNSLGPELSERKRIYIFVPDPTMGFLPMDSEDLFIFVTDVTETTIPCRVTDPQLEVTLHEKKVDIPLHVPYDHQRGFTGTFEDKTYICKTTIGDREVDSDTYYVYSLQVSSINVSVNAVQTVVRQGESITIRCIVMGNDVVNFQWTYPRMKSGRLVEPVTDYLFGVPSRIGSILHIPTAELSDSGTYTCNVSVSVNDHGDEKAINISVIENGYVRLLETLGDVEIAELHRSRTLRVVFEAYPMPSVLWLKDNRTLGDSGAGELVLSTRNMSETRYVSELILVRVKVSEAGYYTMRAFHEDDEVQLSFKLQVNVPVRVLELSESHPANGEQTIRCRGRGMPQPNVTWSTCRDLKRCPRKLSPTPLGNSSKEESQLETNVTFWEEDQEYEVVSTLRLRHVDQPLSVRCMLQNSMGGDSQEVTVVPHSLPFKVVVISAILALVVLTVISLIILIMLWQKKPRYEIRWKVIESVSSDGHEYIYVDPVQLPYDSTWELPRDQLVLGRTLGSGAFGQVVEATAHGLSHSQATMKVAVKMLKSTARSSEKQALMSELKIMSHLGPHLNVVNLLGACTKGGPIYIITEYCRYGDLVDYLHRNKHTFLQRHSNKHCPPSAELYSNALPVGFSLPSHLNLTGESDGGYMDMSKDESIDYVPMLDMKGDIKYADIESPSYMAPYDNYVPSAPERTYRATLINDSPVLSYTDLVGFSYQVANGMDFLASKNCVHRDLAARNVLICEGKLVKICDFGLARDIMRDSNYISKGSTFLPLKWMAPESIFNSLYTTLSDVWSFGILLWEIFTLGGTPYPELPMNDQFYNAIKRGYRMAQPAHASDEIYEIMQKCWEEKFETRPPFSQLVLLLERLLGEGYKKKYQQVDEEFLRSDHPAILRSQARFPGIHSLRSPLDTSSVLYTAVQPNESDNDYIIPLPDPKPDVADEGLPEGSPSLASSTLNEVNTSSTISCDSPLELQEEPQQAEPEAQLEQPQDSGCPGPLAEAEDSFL

[23] = target: T1, Mast/stem cell growth factor receptor Kit; format: cell-based, GISTT1
[24] = Tmax in Sprague-Dawley rat at 10 mg/kg, po by LC-MS/MS analysis; format: ADME, organism-based; details: in vivo
[25] = target: Mast/stem cell growth factor receptor Kit (Homo sapiens, UniProt P10721, 560-578DEL); format: cell-based, GISTT1
Chain of Mast/stem cell growth factor receptor Kit (Homo sapiens, UniProt P10721, 560-578DEL) (P10721 whole entry, looked up, stated change not applied): as the sequence (P10721 whole entry, looked up, stated change not applied) above

[26] = Tmax in Beagle dog at 1 mg/kg, iv by LC-MS/MS analysis; format: ADME, organism-based, Canis lupus familiaris; details: in vivo
[27] = system: Mast/stem cell growth factor receptor Kit (Homo sapiens), P10721 [T670I]; details: Mus musculus
Chain of Mast/stem cell growth factor receptor Kit (Homo sapiens), P10721 [T670I] (P10721 whole entry T670I): as the sequence (P10721 whole entry, looked up, stated change not applied) above, with T670I counted along it
Description: Inhibition of c-KIT T670I mutant in mouse BAF3(transformed) cells assessed as growth inhibition after 72 hrs by CCK8 assay

GISTT1 [28] = format: functional, cell-based; details: Homo sapiens; remark: listed apart in the source
[29] = target: Serine/threonine-protein kinase 10 (Homo sapiens) (UniProt O94804); assay: Binding affinity to wild-type human partial length LOK (E16 to V314 residues) expressed in bacterial expression system assessed as residual binding level at 1 uM by Kinomescan method relative to control
Chain of Serine/threonine-protein kinase 10 (Homo sapiens) (O94804 whole entry, looked up, the tested form may be a part): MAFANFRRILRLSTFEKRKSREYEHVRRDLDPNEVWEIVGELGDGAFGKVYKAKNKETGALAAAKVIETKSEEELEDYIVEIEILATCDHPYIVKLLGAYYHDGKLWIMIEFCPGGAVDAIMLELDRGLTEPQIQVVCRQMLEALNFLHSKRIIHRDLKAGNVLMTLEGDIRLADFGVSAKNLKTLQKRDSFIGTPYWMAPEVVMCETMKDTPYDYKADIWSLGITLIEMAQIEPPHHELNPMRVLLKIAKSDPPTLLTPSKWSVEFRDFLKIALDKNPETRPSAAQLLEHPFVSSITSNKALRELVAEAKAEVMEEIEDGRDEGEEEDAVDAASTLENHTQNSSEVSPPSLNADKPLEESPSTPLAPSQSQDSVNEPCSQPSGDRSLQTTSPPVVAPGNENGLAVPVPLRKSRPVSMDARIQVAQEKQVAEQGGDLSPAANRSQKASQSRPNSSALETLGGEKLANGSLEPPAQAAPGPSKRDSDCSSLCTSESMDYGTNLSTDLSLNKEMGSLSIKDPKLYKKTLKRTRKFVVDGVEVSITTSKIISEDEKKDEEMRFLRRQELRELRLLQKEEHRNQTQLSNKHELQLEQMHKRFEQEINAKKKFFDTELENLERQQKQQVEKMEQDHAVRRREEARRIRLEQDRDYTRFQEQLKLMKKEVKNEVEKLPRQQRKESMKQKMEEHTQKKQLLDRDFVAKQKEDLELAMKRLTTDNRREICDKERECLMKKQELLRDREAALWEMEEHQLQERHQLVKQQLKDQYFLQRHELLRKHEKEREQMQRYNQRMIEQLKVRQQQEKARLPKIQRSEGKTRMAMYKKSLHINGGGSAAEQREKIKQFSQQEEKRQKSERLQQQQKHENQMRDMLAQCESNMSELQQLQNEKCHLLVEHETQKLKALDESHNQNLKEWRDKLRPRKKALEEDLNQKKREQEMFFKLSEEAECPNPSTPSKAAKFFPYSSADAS

[30] = Half life in Sprague-Dawley rat at 10 mg/kg, po by LC-MS/MS analysis; format: ADME, organism-based; details: in vivo
[31] = system: Mast/stem cell growth factor receptor Kit (Homo sapiens), P10721 [K642E]
Chain of Mast/stem cell growth factor receptor Kit (Homo sapiens), P10721 [K642E] (P10721 whole entry K642E): as the sequence (P10721 whole entry, looked up, stated change not applied) above, with K642E counted along it

GISTT1 [32] = format: functional, cell-based; details: Homo sapiens; remark: listed apart in the source
[33] = target: T1, Mast/stem cell growth factor receptor Kit; format: cell-based, GISTT1; remark: listed apart in the source
Mus musculus [34] = format: functional, organism-based; details: BALB/c, 80 mg/kg, TDE = time-dependent effect
[35] = Tmax in Sprague-Dawley rat at 1 mg/kg, iv by LC-MS/MS analysis; format: ADME, organism-based; details: in vivo
Mus musculus [36] = format: functional, organism-based; details: BALB/c, 80 mg/kg; remark: listed apart in the source
[37] = target: T1, Mast/stem cell growth factor receptor Kit; format: cell-based, GISTT1; remark: listed apart in the source

Chain of Mast/stem cell growth factor receptor Kit (Homo sapiens), P10721 [UNDEFINED MUTATION] (P10721 whole entry, looked up, change not shown): as the sequence (P10721 whole entry, looked up, stated change not applied) above
Chain of RAC-alpha serine/threonine-protein kinase (Homo sapiens) (P31749 whole entry): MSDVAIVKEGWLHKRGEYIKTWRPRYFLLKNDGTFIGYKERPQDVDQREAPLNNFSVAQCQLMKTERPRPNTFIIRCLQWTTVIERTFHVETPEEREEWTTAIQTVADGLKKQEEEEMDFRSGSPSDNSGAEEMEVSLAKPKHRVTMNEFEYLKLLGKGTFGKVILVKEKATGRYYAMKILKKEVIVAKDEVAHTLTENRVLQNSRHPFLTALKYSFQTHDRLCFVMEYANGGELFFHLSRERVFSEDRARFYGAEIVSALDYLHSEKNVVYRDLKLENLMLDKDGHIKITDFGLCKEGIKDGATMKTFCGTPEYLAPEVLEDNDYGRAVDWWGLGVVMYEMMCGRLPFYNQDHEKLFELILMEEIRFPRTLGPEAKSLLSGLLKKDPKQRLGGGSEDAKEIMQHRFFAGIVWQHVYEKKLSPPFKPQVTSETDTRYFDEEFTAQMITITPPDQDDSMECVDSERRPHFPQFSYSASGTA

inhibition [1]: Active
inhibition [2]: inactive
inhibition [3]: Active
inhibition [4]: Active
inhibition [5]: Active
inhibition [6]: Active
inhibition [7]: Active
inhibition [8]: Active
SMILES: CCN(CC)CCNC(=O)c1c(C)[nH]c(/C=C2\C(=O)Nc3ccc(F)cc32)c1C [SUNITINIB]

SMILES: COc1cc2nccc(Oc3ccc(NC(=O)Cc4ccc(Cl)c(C(F)(F)F)c4)cc3)c2cc1OC
Activity [9]: 0.09 g
IC50 [10]: 121 nM
TGI (GISTT1 [11]; Homo sapiens, 40 mg/kg): Dose-dependent effect
inhibition in vivo at 40 mg/kg/day (GISTT1 [11]; Mus musculus, GISTT1, po, 672 h, read-out: TGI): 76.4%
half-life [12]: 19.4 h
Activity (GISTT1 [13]): Dose-dependent effect
inhibition (Mus musculus [14]): inactive
TGI (Homo sapiens [15]): Dose-dependent effect
Tmax [16]: 5.33 h
inhibition in vivo at 40 mg/kg/day [17]: 81.8%
Activity (Homo sapiens [18]): Dose-dependent effect
inhibition in vivo at 80 mg/kg/day [19]: 92.7%
inhibition in vivo at 100 mg/kg/day [20]: 100%
EC50 [21]: < 100 nM
GI50 [22]: 4 nM
EC50 [23]: < 100 nM
Tmax [24]: 9 h
EC50 [25]: < 100 nM
Tmax [26]: 1.98 min
GI50 [27]: 4 nM
TGI (GISTT1 [28]): Dose-dependent effect
Activity [29]: < 1%
half-life [30]: 6.41 h
GI50 [31]: 13 nM
Activity (GISTT1 [32]): Dose-dependent effect
EC50 [33]: < 100 nM
inhibition (Mus musculus [34]): Tde
Tmax [35]: 0 h
inhibition (Mus musculus [36]): inactive
EC50 [37]: < 100 nM
